Entries after “also recorded” stand apart in the source; their conditions may differ. Like-named read-outs stand apart in the source and are kept apart here.
Experiments:
[1] = test system: human iPS-derived cardiac progenitor cells (CPCs); test: CPC proliferation assay (nuclear count); assay type: cell-based; settings: 10-point concentration response
[2] = test system: human iPS-derived cardiac progenitor cells (CPCs); test: CPC proliferation assay (nuclear count); assay type: cell-based; settings: for % Effect-normalised cell count: primary screen, relative to basic FGF 100 ng/mL
Method: (§1) The CPC proliferation assay including image and data analysis was performed as previously described.14 Cardiac progenitor marker antibodies are listed in Table S3.
A library of 10 000 compounds was screened in singlicate at three concentrations (0.1, 1.0, and 10 μM) in the CPC proliferation assay. Each plate contained neutral controls, 0.1% DMSO and maximum controls, 100 ng/mL human basic fibroblast growth factor (FGF; Invitrogen, ThermoFisher Scientific, Waltham, Massachusetts). The data were analyzed using the Genedata Screener software (Genedata, Inc, Basel, Switzerland). […] Results were calculated using the following calculation method: compound % effect = 100 × [(X − min)/(max − min)], where X represents a normalized value for the compound based on the neutral and maximum controls.
The library was screened in three‐point concentration response (CR) at 0.1, 1.0, and 10 μM measuring proliferation of human induced pluripotent stem (iPS)‐derived CPCs with nuclear count, as measured by Hoechst staining, as the primary endpoint.

[3] = biological target: T1, RARA (alpha) ligand binding domain (Homo sapiens, UniProt P10276); test: RAR LBD-SRC1-2 coactivator peptide recruitment assay, agonist format, RARA; assay type: biochemical; settings: for EC50: read-out: RARα pEC50 (converted)
T1 sequence (P10276 183-417 limits assumed): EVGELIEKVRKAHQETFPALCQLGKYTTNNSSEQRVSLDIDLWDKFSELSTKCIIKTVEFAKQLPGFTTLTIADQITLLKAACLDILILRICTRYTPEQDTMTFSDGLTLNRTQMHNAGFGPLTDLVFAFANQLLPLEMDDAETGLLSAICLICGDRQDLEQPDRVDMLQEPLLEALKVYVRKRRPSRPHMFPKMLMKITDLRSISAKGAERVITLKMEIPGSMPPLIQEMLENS
Method: (§2) RAR ligand binding domain (LBD)‐SRC1‐2 coactivator peptide (NCOA1_677‐700 biotinylated) recruitment assays were established for the three RAR isotypes RARA (alpha), RARB (beta), and RARG (gamma) to determine relative potencies. […] A total of 0.4 μL of a fixed concentration range of test ligands dissolved in dimethyl sulphoxide (DMSO) was added to assay plates using an acoustic liquid dispenser. […] The raw data were transformed to % effect using the equation: compound % effect = 100 × [(X − min)/(max − min)], where X represents the effect in the presence of test compound and max and min are the effects in presence of the maximum and minimum controls, respectively.
(§3) The data were plotted to generate concentration‐response profiles and the concentration‐response curves were fit to the data using the four‐parameter logistic smart fit method in the Genedata Screener software (Genedata, Inc).

[4] = biological target: T2, RARG (gamma) ligand binding domain (Homo sapiens, UniProt P13631); test: RAR LBD-SRC1-2 coactivator peptide recruitment assay, agonist format, RARG; assay type: biochemical; settings: for EC50: read-out: RARγ pEC50 (converted)
T2 sequence (P13631 185-419 limits assumed): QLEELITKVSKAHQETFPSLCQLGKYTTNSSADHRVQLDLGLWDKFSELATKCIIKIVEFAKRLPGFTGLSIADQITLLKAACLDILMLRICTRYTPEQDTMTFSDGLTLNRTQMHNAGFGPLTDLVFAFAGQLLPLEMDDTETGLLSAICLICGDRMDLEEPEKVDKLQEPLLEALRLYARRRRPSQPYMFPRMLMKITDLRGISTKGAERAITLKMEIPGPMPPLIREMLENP
Method: as §2, §3

[5] = biological target: T3, RARB (beta) ligand binding domain (Homo sapiens, UniProt P10826); test: RAR LBD-SRC1-2 coactivator peptide recruitment assay, agonist format, RARB; assay type: biochemical; settings: for EC50: read-out: RARβ pEC50 (converted)
T3 sequence (P10826 183-417 limits assumed): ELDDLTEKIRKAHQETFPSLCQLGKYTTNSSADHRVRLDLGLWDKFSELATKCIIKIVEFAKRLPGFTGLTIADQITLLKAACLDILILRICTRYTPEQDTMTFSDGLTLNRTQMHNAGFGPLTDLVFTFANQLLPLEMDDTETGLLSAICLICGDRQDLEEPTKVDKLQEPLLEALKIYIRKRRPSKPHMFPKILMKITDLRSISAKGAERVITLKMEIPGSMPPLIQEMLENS
Method: as §2, §3

[6] = biological target: T3, RARB (beta) ligand binding domain; test: RAR coactivator peptide recruitment assay, antagonist format, RARB; assay type: biochemical; settings: for IC50: read-out: RARβ pIC50 (converted)
Method: as §2, §3

[7] = biological target: T1, RARA (alpha) ligand binding domain; test: RAR coactivator peptide recruitment assay, antagonist format, RARA; assay type: biochemical; settings: for IC50: read-out: RARα pIC50 (converted)
Method: as §2, §3

iPS-derived CPCs [8] = settings: absence of RAR agonist
Description: Cells were fixed and nuclei stained on day 4 postplating and 3 days postcompound addition. […] The data represent the mean of two independent experiments each conducted in quadruplicate; error bars indicate SEM. […] The data for CPCs and CFs are obtained from two independent RNA preparations from each cell type

[9] = biological target: T2, RARG (gamma) ligand binding domain; test: RAR coactivator peptide recruitment assay, antagonist format, RARG; assay type: biochemical; settings: for IC50: 10 nM R-667, read-out: RARγ pIC50 (converted)
Method: as §2, §3

[10] = test system: HuES6 hPSC-derived cardiac progenitors; test: HuES6-derived cardiac progenitors replated on day 5: cell number, RT-qPCR, immunocytochemistry; assay type: cell-based, human; settings: for terminal cardiac differentiation, in words / expression of cardiac progenitor markers vs untreated: 1 μM, day-5 replated cells, 4 days; for expression of cardiac progenitor markers vs untreated: with the exception of ISL1; for effect on cell proliferation / cell numbers, in words: 1.0 μM, day-5 replated progenitors, 4 days of exposure
Method: Insulin and signaling agonists were omitted after 1 day. On days 2‐3, the nascent mesodermal cells were specified to the cardiac lineage using 0.2 μM C‐59 (R&D Tocris) supplementation. Culture medium was replaced daily.
Basal cardiac progenitor medium was composed of DMEM/F12 (ThermoFisher Scientific), insulin/transferrin/selenium supplement, 0.1% human serum albumin (Biological Industries Inc, Cromwell, Connecticut), 1× chemically defined lipids (ThermoFisher Scientific), and antibiotics. RAR agonists (1 μM) were added from the day of passaging the cells. Samples were harvested and monitored after 4 days of treatment.
Cell numbers per well were quantified following single‐cell dissociation with Accutase and using standard Neubauer counting chambers. RT‐qPCR and immunocytochemistry were performed according to standard procedures. RPL37A served as housekeeping gene for normalization.

iPS-derived CPCs [11] = test: Cardiac progenitor marker antibody staining of treated CPCs; assay type: cell-based, human; settings: 40 nM, 3 days
Method: as §1
A key requirement of the screen was that the expanded CPCs must retain their progenitor phenotype.
Figure 2 Cardiac progenitor cells (CPCs) retain progenitor markers after retinoic acid receptor agonist treatment. […] Larger images are representative merged images of Hoechst nuclear stain in blue and immunofluorescence of the indicated progenitor marker in green. Insets show the progenitor marker staining in gray scale at 3.3‐fold higher magnification. Scale bars: 50 μm

[12] = test system: RAR-responsive genes in CPCs; test: RNA seq analysis of AM580-treated CPCs; assay type: cell-based, human; settings: 4-hour and 24-hour time points
Method: CPC was seeded in fibronectin‐coated 24‐well plates, 150 000 cells in 0.5 mL media per well. […] Cell media were removed after 4 hours or 24 hours, and the cells were lysed for RNA preparation using the MagMax Total RNA Isolation kit. Triplicate samples were prepared for each treatment and time point. RNA integrity and concentration were analyzed on a fragment analyzer with the standard sensitivity RNA kit (Agilent, Santa Clara, California). RNA quality number was 8.2 on average.
A total of 1000 ng RNA per sample was processed with the TruSeq stranded mRNA kit (Illumina, San Diego, California) following the instructions from the manufacturer. […] Samples were pooled, diluted, and denatured according to Illumina's recommendations and sequenced on a NextSeq500 (High 150 cycles kit, reading 2 × 75 cycles). On average, samples had 13M reads with 93% of reads with >Q30.
RNA‐Seq data were processed using the bcbio pipeline version 0.9.7. Hisat2 version 2.0.2‐β aligner was used to align reads to the human genome version hg38. […] Differential expression analysis was performed on feature counts using DESeq2.32 Data quality was assessed using MultiQC.33 Genes with the lowest expression levels (less than five counts in at least two samples) were removed prior to differential expression estimation since they can be considered as nonexpressed.

[13] = test system: human cardiac fibroblasts (CFs); test: CF proliferation assay (nuclear count)
Method: To ensure that these molecules were not general proliferators of all cardiac cells, they were also tested in a human CF proliferation assay31 using nuclear count as the endpoint.

RAR = RAR coactivator recruitment assay (isotypes not separated); assay type: biochemical
Method: as §2, §3

[14] = iPSC-derived CPC proliferation, read-out: CPC pEC50 (converted)

Structure (SMILES)	EC50 [3] [µM]	RARγ pEC50 (% top effect): % top effect [4] [%]	EC50 [4] [µM]	maximal effect (% top effect) [5] [%]	EC50 [5] [µM]	IC50 [6] [µM]	IC50 [7] [µM]	IC50 [9] [µM]	EC50 [1, 14] [µM]	CPC proliferation, result in words [2]	terminal cardiac differentiation, in words [10]	expression of cardiac progenitor markers vs untreated [10]	effect on cell proliferation / cell numbers, in words [10]	other results
CC1=C(/C=C/C(C)=C\C=C\C(C)=C\C(=O)O)C(C)(C)CCC1 [9‐cis‐retinoic acid]	–	–	–	–	–	–	–	–	> 10	inactive	–	–	–	–
CC1(C)CCC(C)(C)c2cc(NC(=O)c3ccc(C(=O)O)cc3)ccc21 [AM80]	–	119	–	149	–	–	–	–	0.00794	EC50 values in the low nanomolar range	pronounced inhibition of terminal cardiac differentiation	enhanced the expression of cardiac progenitor markers	strong positive effects on cell proliferation	expression of cardiac progenitor markers Nkx2.5, Islet1, Gata4, PDGFRα after treatment (iPS-derived CPCs [11]): retain expression
Cc1cc2c(cc1-c1cc(/C=C/C(=O)O)ccc1O)C(C)(C)CCC2(C)C [CD 3254]	> 20	–	> 20	–	> 20	> 20	> 20	> 20	> 10	inactive	–	–	–	–
CC1(C)CCC(C)(C)c2cc(C#Cc3ccc(C(=O)O)cc3)ccc21 [EC 23]	–	–	–	–	–	–	–	–	0.00126	EC50 values in the low nanomolar range	pronounced inhibition of terminal cardiac differentiation	enhanced the expression of cardiac progenitor markers	strong positive effects on cell proliferation	–
CC1(C)CCC(C)(C)c2cc(C3(c4ccc(C(=O)O)cc4)OCCO3)ccc21 [SR 11237]	> 20	–	> 20	–	> 20	> 20	> 20	–	> 10	inactive	–	–	–	–
C/C(=C\c1ccc(C(=O)O)cc1)c1ccc2c(c1)C(C)(C)CCC2(C)C [TTNPB]	–	–	–	–	–	–	–	–	0.00316	EC50 values in the low nanomolar range	pronounced inhibition of terminal cardiac differentiation	enhanced the expression of cardiac progenitor markers	strong positive effects on cell proliferation	–

Continued, in another order:

EC50 [3] [µM]	RARγ pEC50 (% top effect): % top effect [4] [%]	EC50 [4] [µM]	maximal effect (% top effect) [5] [%]	EC50 [5] [µM]	IC50 [6] [µM]	IC50 [7] [µM]	IC50 [9] [µM]	Structure (SMILES)	EC50 [1, 14] [µM]	CPC proliferation, result in words [2]	terminal cardiac differentiation, in words [10]	expression of cardiac progenitor markers vs untreated [10]	effect on cell proliferation / cell numbers, in words [10]	other results
0.00398	88	0.1	100	0.01	–	–	–	CC1(C)CCC(C)(C)c2cc(C(=O)Nc3ccc(C(=O)O)c(F)c3)ccc21 [AGN 193312]	0.00794	EC50 values in the low nanomolar range	–	–	–	top effect (% of maximum control) [3]: 159%
> 20	–	> 20	–	> 20	0.00126	0.00251	0.02	Cc1ccc(C2=CC(C)(C)Oc3c(Br)cc(C(=O)Nc4ccc(C(=O)O)c(F)c4)cc32)cc1 [AGN 194301]	> 10	–	–	–	–	RARβ pIC50 (% top effect): % top effect ([6]; antagonist format, 10 nM TTNPB): 105%; RARα pIC50 (% top effect): % top effect ([7]; antagonist format, 10 nM ATRA): 108%; effect on CPC proliferation of antagonist alone (iPS-derived CPCs [8]): did not proliferate the cells; also recorded: no effect on proliferation; toxicity to CPCs (iPS-derived CPCs [8]): no signs of toxicity; RARγ pIC50 (% top effect): % top effect ([9]; 10 nM R-667): 106%
–	99	–	104	–	–	–	–	CC1(C)CCC(C)(C)c2cc(C(=O)Nc3ccc(C(=O)O)cc3)ccc21 [AM580]	0.00631	–	–	–	–	EC50 ([1]; read-out: EC50, CPC proliferation): 0.005 µM; mRNA expression of RAR-responsive genes (RARB, RBP1, CRABP2, CYP26A1) [12]: significant increase; CF proliferation, result in words [13]: inactive; % Effect-normalised cell count ([2]; Log Concentration M -5 (10 μM)): 49.6%; % Effect-normalised cell count ([2]; Log Concentration M -6 (1.0 μM)): 76.4%; % Effect-normalised cell count ([2]; Log Concentration M -7 (0.1 μM)): 106%; expression of cardiac progenitor markers Nkx2.5, Islet1, Gata4, PDGFRα after treatment (iPS-derived CPCs [11]): retain expression
> 20	–	> 20	–	> 20	> 20	> 20	> 20	CC1=C(/C=C/C(C)=C/C=C/C(C)=C/CO)C(C)(C)CCC1 [Retinol]	> 10	no effect	–	–	–	activity in RAR coactivator recruitment assay, in words (RAR): inactive

Source: paper PMC6954720, “Discovery of retinoic acid receptor agonists as proliferators of cardiac progenitor cells through a phenotypic screening approach” (Stem Cells Translational Medicine, 2019)
